# The source made the active and inactive calls. The calls are words filed in the database; no cut-off is given here.
# Tests used:
# [1] = target: T1, Amine oxidase [flavin-containing] B (Homo sapiens, UniProt P27338); experiment: Inhibition of human recombinant MAO-B expressed in baculovirus-infected BTI cells at 10 uM using benzylamine as substrate preincubated with enzyme for 15 mins followed by substrate addition and measured after 20 mins by Amplex Red reagent based fluorescence analysis; conditions: time 35 min
# T1 sequence (P27338 whole entry): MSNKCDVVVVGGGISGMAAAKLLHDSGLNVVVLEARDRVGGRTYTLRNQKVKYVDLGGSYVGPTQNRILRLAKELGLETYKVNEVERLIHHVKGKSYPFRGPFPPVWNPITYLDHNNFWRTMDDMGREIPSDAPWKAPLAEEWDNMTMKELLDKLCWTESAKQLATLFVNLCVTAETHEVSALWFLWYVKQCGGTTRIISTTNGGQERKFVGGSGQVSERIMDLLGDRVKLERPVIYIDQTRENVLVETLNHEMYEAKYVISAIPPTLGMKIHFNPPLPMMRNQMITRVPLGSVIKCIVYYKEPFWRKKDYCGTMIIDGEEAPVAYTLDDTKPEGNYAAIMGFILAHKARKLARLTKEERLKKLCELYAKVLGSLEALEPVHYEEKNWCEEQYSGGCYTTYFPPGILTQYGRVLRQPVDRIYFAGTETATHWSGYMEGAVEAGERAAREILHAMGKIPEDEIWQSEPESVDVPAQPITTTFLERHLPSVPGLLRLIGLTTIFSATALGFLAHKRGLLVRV
# [2] = target: T2, Amine oxidase [flavin-containing] A (Homo sapiens, UniProt P21397); experiment: Inhibition of human recombinant MAO-A using p-tyramine as substrate preincubated with enzyme for 15 mins followed by substrate addition and measured after 20 mins by Amplex Red reagent based fluorescence analysis
# T2 sequence (P21397 whole entry): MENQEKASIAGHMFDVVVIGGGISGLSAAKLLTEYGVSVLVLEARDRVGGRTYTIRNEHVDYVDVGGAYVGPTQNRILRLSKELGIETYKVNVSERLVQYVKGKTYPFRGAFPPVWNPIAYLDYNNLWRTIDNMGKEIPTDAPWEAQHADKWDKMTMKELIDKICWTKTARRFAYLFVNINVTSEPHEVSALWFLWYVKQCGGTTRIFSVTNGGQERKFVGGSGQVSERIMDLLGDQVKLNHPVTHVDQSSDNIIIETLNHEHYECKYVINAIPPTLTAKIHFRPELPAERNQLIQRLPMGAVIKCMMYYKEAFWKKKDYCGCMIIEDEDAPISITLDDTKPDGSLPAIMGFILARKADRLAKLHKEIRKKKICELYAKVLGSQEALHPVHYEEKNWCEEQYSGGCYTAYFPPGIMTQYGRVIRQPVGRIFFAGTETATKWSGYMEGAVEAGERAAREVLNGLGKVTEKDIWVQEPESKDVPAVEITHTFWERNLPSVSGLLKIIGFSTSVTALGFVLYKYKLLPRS
# [3] = organism: Homo sapiens; experiment: Selectivity index, ratio of IC50 for inhibition of human recombinant MAO-A to IC50 for inhibition of human recombinant MAO-B expressed in baculovirus-infected BTI cells
# [4] = target: T1, Amine oxidase [flavin-containing] B; experiment: Inhibition of human recombinant MAO-B expressed in baculovirus-infected BTI cells using benzylamine as substrate preincubated with enzyme for 15 mins followed by substrate addition and measured after 20 mins by Amplex Red reagent based fluorescence analysis
# [5] = test system: MAO-B; experiment: Safety ratio of cytotoxicity against mouse BV-2 cells to IC50 for inhibition of human recombinant MAO-B expressed in baculovirus-infected BTI cells; format: toxicity
# [6] = test system: BV-2; experiment: Cytotoxicity against mouse BV-2 cells assessed as effect on cell viability upto 10 uM; format: toxicity, cell-based; conditions: bv-2, 10 µM
# [7] = test system: BV-2; experiment: Anti-neuroinflammatory activity against mouse BV-2 cells assessed as suppression of LPS-induced PGE2 production; format: functional, cell-based; conditions: dose 5-10 µM
# [8] = test system: BV-2; experiment: Anti-neuroinflammatory activity against mouse BV-2 cells assessed as suppression of LPS-induced NO production; format: functional, cell-based
# [9] = test system: BV-2; experiment: Anti-neuroinflammatory activity against mouse BV-2 cells assessed as suppression of LPS-induced NO production at 3 uM; format: functional, cell-based
# [10] = test system: BV-2; experiment: Anti-neuroinflammatory activity against mouse BV-2 cells assessed as suppression of LPS-induced PGE2 production at 10 uM; format: functional, cell-based
# [11] = test system: BV-2; experiment: Cytotoxicity against mouse BV-2 cells assessed as effect on cell viability at 30 uM; format: toxicity, cell-based; conditions: bv-2, 30 µM
# [12] = test system: BV-2; experiment: Anti-neuroinflammatory activity against mouse BV-2 cells assessed as suppression of LPS-induced NO production at 1 uM; format: functional, cell-based
# [13] = test system: BV-2; experiment: Anti-neuroinflammatory activity against mouse BV-2 cells assessed as suppression of LPS-induced PGE2 production at 5 to 10 uM; format: functional, cell-based; conditions: dose 5-10 µM
# [14] = target: T1, Amine oxidase [flavin-containing] B; experiment: Irreversible inhibition of MAO-B (unknown origin) measured after drug wash-out
# [15] = test system: BV-2; experiment: Anti-neuroinflammatory activity against mouse BV-2 cells assessed as suppression of LPS-induced NO production at 10 uM; format: functional, cell-based
SMILES,inhibition at 10 µM [1] [%],IC50 [2] [nM],IC50 [4] [nM],Ratio IC50 [3],other results
O=C1/C(=C/c2cccc(OCc3cccc(F)c3)c2)Oc2cc(O)ccc21,55.1,–,–,–,–
COc1ccc(/C=C2\Oc3cc(O)ccc3C2=O)c(OC)c1OC,–,> 100000,–,> 583,–
O=C1/C(=C/c2cccc(OCc3ccc(F)cc3)c2)Oc2cc(O)ccc21,60.7,> 100000,2370,> 42.2,–
COc1cccc(COc2cccc(/C=C3\Oc4cc(O)ccc4C3=O)c2)c1,70.1,> 30000,1060,> 28.4,–
O=C1/C(=C/c2cccc(OCc3ccccc3Cl)c2)Oc2cc(O)ccc21,41.7,–,–,–,–
O=C1/C(=C/c2cccc(OCc3ccccc3F)c2)Oc2cc(O)ccc21,73.9,> 100000,950,> 106,–
O=C1/C(=C/c2cccc(OCc3cccc(Cl)c3)c2)Oc2cc(O)ccc21,61.7,> 100000,1910,> 52.3,–
O=C1/C(=C/c2cccc(OCc3ccc(Cl)cc3)c2)Oc2cc(O)ccc21,70.7,> 100000,1810,> 55.2,–
O=C1/C(=C/c2cccc(OCc3cccc(Br)c3)c2)Oc2cc(O)ccc21,62.7,> 100000,2020,> 49.6,–
O=C1/C(=C/c2cccc(OCc3ccccc3Br)c2)Oc2cc(O)ccc21,36,–,–,–,–
O=C1/C(=C/c2cccc(OCc3ccc(Br)cc3)c2)Oc2cc(O)ccc21,69.6,> 100000,1670,> 59.9,–
O=C1/C(=C/c2cccc(OCc3ccccc3)c2)Oc2cc(O)ccc21,77.8,> 100000,1110,> 89.8,–

# Continued, in another order:
inhibition at 10 µM [1] [%],IC50 [2] [nM],IC50 [4] [nM],SMILES,Ratio IC50 [3],other results
41.1,–,–,O=C1/C(=C/c2ccc(OCc3ccc(Br)cc3)cc2)Oc2cc(O)ccc21,–,–
74.2,> 100000,760,O=C1/C(=C/c2ccc(OCc3ccccc3F)cc2)Oc2cc(O)ccc21,> 131,selectivity ratio [5]: > 13.1; Activity [6]: Non-Toxic
55.3,–,–,O=C1/C(=C/c2ccc(OCc3cccc(F)c3)cc2)Oc2cc(O)ccc21,–,–
67.9,> 100000,950,O=C1/C(=C/c2ccc(OCc3cccc(Br)c3)cc2)Oc2cc(O)ccc21,> 106,selectivity ratio [5]: 10.6; Activity [6]: Non-Toxic
59.7,–,–,COc1cccc(COc2ccc(/C=C3\Oc4cc(O)ccc4C3=O)cc2)c1,–,–
59,–,–,O=C1/C(=C/c2ccc(OCc3cccc(Cl)c3)cc2)Oc2cc(O)ccc21,–,–
48.5,–,–,O=C1/C(=C/c2ccc(OCc3cccc([N+](=O)[O-])c3)cc2)Oc2cc(O)ccc21,–,–
33.9,–,–,O=C1/C(=C/c2cccc(OCc3cccc([N+](=O)[O-])c3)c2)Oc2cc(O)ccc21,–,–
35.6,–,–,O=C1/C(=C/c2ccc(OCc3ccc(Cl)cc3)cc2)Oc2cc(O)ccc21,–,–
68.2,> 100000,1000,O=C1/C(=C/c2ccc(OCc3ccc(F)cc3)cc2)Oc2cc(O)ccc21,> 100,Activity [7]: Dose-Dependent Effect; Activity [8]: Dose-Dependent Effect; selectivity ratio [5]: > 30; Activity [9]: Active; Activity [10]: Active; Activity [6]: Non-Toxic; Activity [11]: Non-Toxic; Activity [12]: inactive
81.7,> 100000,440,O=C1/C(=C/c2ccc(OCc3ccccc3Br)cc2)Oc2cc(O)ccc21,> 227,selectivity ratio [5]: > 6
81.3,> 100000,380,O=C1/C(=C/c2ccc(OCc3ccccc3Cl)cc2)Oc2cc(O)ccc21,> 264,Activity [8]: Dose-Dependent Effect; Activity [13]: Active; selectivity ratio [5]: > 27; Activity [9]: Active; Activity [6]: Non-Toxic; Activity [12]: inactive; inhibition (INH) [14]: Active
86.7,> 100000,720,O=C1/C(=C/c2ccc(OCc3ccccc3)cc2)Oc2cc(O)ccc21,> 138,Activity [7]: Dose-Dependent Effect; Activity [8]: Dose-Dependent Effect; Activity [13]: Active; selectivity ratio [5]: > 41.6; Activity [6]: Non-Toxic; Activity [11]: Non-Toxic; Activity [15]: Active

# From ChEMBL document CHEMBL5576105, “Synthesis and biological evaluation of O4'-benzyl-hispidol derivatives and analogs as dual monoamine oxidase-B inhibitors and anti-neuroinflammatory agents” (Bioorg Med Chem, 2024)
